tested on: NBD1/3D; test: Aggregation analysis using differential static light scattering (DSLS), NBD1 thermal stability; type: binding, Human; details: ΔTagg versus DMSO control; compound at 100 μM
Summary of the method: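 Thermal stabilisation reported as ΔTagg, i.e. aggregation temperature relative to averaged DMSO wells. Tagg came from the inflection of differential static light scattering imaged 25–70 °C while NBD1 (0.2 mg/ml, Tris pH 7.6 buffer containing ATP, MgCl2, DTT, glycerol) was ramped 1 °C/min.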

Row | SMILES | DSLS NBD1/3D Human Stability delta-T (° C.) @ 100 (μM)
1 | O=C(O)CCc1cccc(C2(c3cnc(-c4cc(Oc5c(F)cc6[nH]ccc6c5F)ccc4F)[nH]3)CC2)c1 [Example 143, 3-(3-(1-(2-(5-((4,6-difluoro-1H-indol-5-yl)oxy)-2-fluorophenyl)-1H-imidazol-5-yl)cyclopropyl)phenyl)propanoic acid] | B (B: 5-10° C.)
2 | Cc1c(Oc2ccc(F)c(-c3ncc(C(C)(C)c4cccc(CCC(=O)O)c4)[nH]3)c2)c(F)cc2[nH]ccc12 [Example 144, 3-(3-(2-(2-(2-fluoro-5-((6-fluoro-4-methyl-1H-indol-5-yl)oxy)phenyl)-1H-imidazol-5-yl)propan-2-yl)phenyl)propanoic acid] | B (B: 5-10° C.)
3 | CC(C)(c1cccc(CCC(=O)O)c1)c1cnc(-c2cc(Oc3c(F)cc4[nH]ccc4c3F)ccc2F)[nH]1 [Example 145, 3-(3-(2-(2-(5-((4,6-difluoro-1H-indol-5-yl)oxy)-2-fluorophenyl)-1H-imidazol-5-yl)propan-2-yl)phenyl)propanoic acid] | B (B: 5-10° C.)
4 | Cc1c(Oc2ccc(F)c(-c3ncc(C4(c5cccc(CCC(=O)O)c5)CCCC4)[nH]3)c2)c(F)cc2[nH]ccc12 [Example 146, 3-(3-(1-(2-(2-fluoro-5-((6-fluoro-4-methyl-1H-indol-5-yl)oxy)phenyl)-1H-imidazol-5-yl)cyclopentyl)phenyl)propanoic acid] | B (B: 5-10° C.)
5 | Cc1c(Oc2ccc(F)c(-c3nc(C4(c5cccc(CCC(=O)O)c5)CCCCC4)c[nH]3)c2)c(F)cc2[nH]ccc12 [Example 147, 3-(3-(1-(2-(2-fluoro-5-((6-fluoro-4-methyl-1H-indol-5-yl)oxy)phenyl)-1H-imidazol-4-yl)cyclohexyl)phenyl)propanoic acid] | B (B: 5-10° C.)
6 | Cc1c(Oc2ccc(F)c(-c3ncc(C4(c5cccc(CCC(=O)O)c5)CCOCC4)[nH]3)c2)c(F)cc2[nH]ccc12 [Example 148, 3-(3-(4-(2-(2-fluoro-5-((6-fluoro-4-methyl-1H-indol-5-yl)oxy)phenyl)-1H-imidazol-5-yl)tetrahydro-2H-pyran-4-yl)phenyl)propanoic acid] | A (A: T ≥ 10° C.)
7 | Cc1c(Oc2ccc(F)c(-c3ncc(C4(c5cccc(CCC(=O)O)c5)CC(C)OC(C)C4)[nH]3)c2)c(F)cc2[nH]ccc12 (centres unmarked) [Example 149, 3-(3-(4-(2-(2-fluoro-5-((6-fluoro-4-methyl-1H-indol-5-yl)oxy)phenyl)-1H-imidazol-5-yl)-2,6-dimethyltetrahydro-2H-pyran-4-yl)phenyl)propanoic acid] | B (B: 5-10° C.)
8 | O=C(O)CCc1cccc(C2(c3cnc(-c4cc(Oc5c(F)cc6[nH]ccc6c5F)ccc4F)[nH]3)CCOC2)c1 (centres unmarked) [Example 150, 3-(3-(3-(2-(5-((4,6-difluoro-1H-indol-5-yl)oxy)-2-fluorophenyl)-1H-imidazol-5-yl)tetrahydrofuran-3-yl)phenyl)propanoic acid] | A (A: T ≥ 10° C.)
9 | Cc1c(Oc2ccc(F)c(-c3ncc(C4(c5cccc(CCC(=O)O)c5)CCOC4)[nH]3)c2)c(F)cc2[nH]ccc12 (centres unmarked) [Example 153, 3-(3-(3-(2-(2-fluoro-5-((6-fluoro-4-methyl-1H-indol-5-yl)oxy)phenyl)-1H-imidazol-5-yl)tetrahydrofuran-3-yl)phenyl)propanoic acid] | A (A: T ≥ 10° C.)
10 | Cc1c(Oc2ccc(F)c(-c3ncc(C4(c5cc(F)cc(CCC(=O)O)c5)CC4)[nH]3)c2)c(F)cc2[nH]ccc12 [Example 156, 3-(3-fluoro-5-(1-(2-(2-fluoro-5-((6-fluoro-4-methyl-1H-indol-5-yl)oxy)phenyl)-1H-imidazol-5-yl)cyclopropyl)phenyl)propanoic acid] | B (B: 5-10° C.)
11 | CC(C)(c1cnc(-c2cc(Oc3c(F)c(F)c4[nH]ccc4c3F)ccc2F)[nH]1)c1cccc(CCC(=O)O)c1F [Example 157, 3-(2-fluoro-3-(2-(2-(2-fluoro-5-((4,6,7-trifluoro-1H-indol-5-yl)oxy)phenyl)-1H-imidazol-5-yl)propan-2-yl)phenyl)propanoic acid] | B (B: 5-10° C.)
12 | Cc1c(Oc2ccc(F)c(-c3nc(C(C)(C)c4cccc(CCC(=O)O)c4F)c[nH]3)c2)c(F)c(F)c2[nH]ccc12 [Example 158, 3-(3-(2-(2-(5-((6,7-difluoro-4-methyl-1H-indol-5-yl)oxy)-2-fluorophenyl)-1H-imidazol-4-yl)propan-2-yl)-2-fluorophenyl)propanoic acid] | B (B: 5-10° C.)
13 | CC(C)(c1cnc(-c2cc(Oc3c(F)cc4[nH]ccc4c3F)ccc2F)[nH]1)c1cccc(CCC(=O)O)c1F [Example 160, 3-(3-(2-(2-(5-((4,6-difluoro-1H-indol-5-yl)oxy)-2-fluorophenyl)-1H-imidazol-5-yl)propan-2-yl)-2-fluorophenyl)propanoic acid] | B (B: 5-10° C.)
14 | Cc1c(Oc2ccc(F)c(-c3ncc(C(C)(C)c4cccc(CCC(=O)O)c4F)[nH]3)c2)ccc2[nH]ccc12 [Example 161, 3-(2-fluoro-3-(2-(2-(2-fluoro-5-((4-methyl-1H-indol-5-yl)oxy)phenyl)-1H-imidazol-5-yl)propan-2-yl)phenyl)propanoic acid] | B (B: 5-10° C.)
15 | CC(C)(c1cnc(-c2cc(Oc3ccc4[nH]ccc4c3F)ccc2F)[nH]1)c1cccc(CCC(=O)O)c1F [Example 162, 3-(2-fluoro-3-(2-(2-(2-fluoro-5-((4-fluoro-1H-indol-5-yl)oxy)phenyl)-1H-imidazol-5-yl)propan-2-yl)phenyl)propanoic acid] | B (B: 5-10° C.)
16 | CC(C)(c1cnc(-c2cc(Oc3c(F)cc4[nH]ccc4c3CC(F)(F)F)ccc2F)[nH]1)c1cccc(CCC(=O)O)c1F [Example 163, 3-(2-fluoro-3-(2-(2-(2-fluoro-5-((6-fluoro-4-(2,2,2-trifluoroethyl)-1H-indol-5-yl)oxy)phenyl)-1H-imidazol-5-yl)propan-2-yl)phenyl)propanoic acid] | B (B: 5-10° C.)
17 | CC(C)(c1c[nH]c(-c2cc(Oc3c(F)cc4[nH]ccc4c3Cl)ccc2F)n1)c1cccc(CCC(=O)O)c1F [Example 164, 3-(3-(2-(2-(5-((4-chloro-6-fluoro-1H-indol-5-yl)oxy)-2-fluorophenyl)-1H-imidazol-4-yl)propan-2-yl)-2-fluorophenyl)propanoic acid] | B (B: 5-10° C.)
18 | O=C(O)CCc1cccc(C2(c3cnc(-c4cc(Oc5nc6cc[nH]c6cc5F)ccc4F)[nH]3)CC(F)(F)C2)c1 [Example 165, 3-(3-(3,3-difluoro-1-(2-(2-fluoro-5-((6-fluoro-1H-pyrrolo[3,2-b]pyridin-5-yl)oxy)phenyl)-1H-imidazol-5-yl)cyclobutyl)phenyl)propanoic acid] | B (B: 5-10° C.)
19 | O=C(O)CCc1cccc(C2(c3cnc(-c4cc(Oc5ccc6scnc6c5)ccc4F)[nH]3)CCOCC2)c1 [Example 166, 3-(3-(4-(2-(5-(Benzo[d]thiazol-5-yloxy)-2-fluorophenyl)-1H-imidazol-5-yl)tetrahydro-2H-pyran-4-yl)phenyl)propanoic acid] | C (C: ≤5° C.)
20 | Cc1c(Oc2ccc(F)c(-c3ncc(C4(c5cccc(CCC(=O)O)c5)CCN(CC(F)(F)F)CC4)[nH]3)c2)c(F)cc2[nH]ccc12 [Example 168, 3-(3-(4-(2-(2-fluoro-5-((6-fluoro-4-methyl-1H-indol-5-yl)oxy)phenyl)-1H-imidazol-5-yl)-1-(2,2,2-trifluoroethyl)piperidin-4-yl)phenyl)propanoic acid] | B (B: 5-10° C.)
21 | Cc1c(Oc2cccc(-c3ncc(C(O)c4cccc(CC(F)C(=O)O)c4)[nH]3)c2)ccc2[nH]ccc12 (centres unmarked) [Example 172, 2-Fluoro-3-(3-(hydroxy(2-(3-((4-methyl-1H-indol-5-yl)oxy)phenyl)-1H-imidazol-5-yl)methyl)phenyl)propanoic acid] | A (A: T ≥ 10° C.)
22 | COC(=O)C(F)Cc1cccc(C(O)c2cnc(-c3cccc(Oc4ccc5[nH]ccc5c4C)c3)[nH]2)c1 (centres unmarked) [Example 173, Methyl 2-fluoro-3-(3-(hydroxy(2-(3-((4-methyl-1H-indol-5-yl)oxy)phenyl)-1H-imidazol-5-yl)methyl)phenyl)propanoate] | B (B: 5-10° C.)
23 | C=Cc1c(Oc2cccc(-c3ncc(C(O)c4cccc(CCC(=O)O)c4)[nH]3)c2)ccc2[nH]ccc12 (centres unmarked) [Example 174, 3-(3-(hydroxy(2-(3-((4-vinyl-1H-indol-5-yl)oxy)phenyl)-1H-imidazol-5-yl)methyl)phenyl)propanoic acid] | B (B: 5-10° C.)
24 | O=C(O)CCc1cccc(C(O)c2cnc(-c3cccc(Oc4ccc5[nH]ccc5c4C4CC4)c3)[nH]2)c1 (centres unmarked) [Example 175, 3-(3-((2-(3-((4-cyclopropyl-1H-indol-5-yl)oxy)phenyl)-1H-imidazol-5-yl)(hydroxy)methyl)phenyl)propanoic acid] | B (B: 5-10° C.)
25 | Cc1c(Oc2cccc(-c3ncc(C(O)c4cccc(C5CC5C(=O)O)c4)[nH]3)c2)ccc2[nH]ccc12 (centres unmarked) [Example 176, 2-(3-(hydroxy(2-(3-((4-methyl-1H-indol-5-yl)oxy)phenyl)-1H-imidazol-5-yl)methyl)phenyl)cyclopropane-1-carboxylic acid] | B (B: 5-10° C.)
26 | O=C(O)CCc1cccc(C(O)c2c[nH]c(-c3cc(Oc4c(F)cc5[nH]ccc5c4F)ccc3F)n2)c1 (centres unmarked) [Example 177, 3-(3-((2-(5-((4,6-difluoro-1H-indol-5-yl)oxy)-2-fluorophenyl)-1H-imidazol-4-yl)(hydroxy)methyl)phenyl)propanoic acid] | A (A: T ≥ 10° C.)

Source: US20240279220A1, “INDOLE COMPOUNDS AND METHODS OF USE” (Genzyme Corporation, priority 2021, published 2024)
